Assay results as given in US9247759B2, “Identification of human T2R receptors that respond to bitter compounds that elicit the bitter taste in compositions, and the use thereof in assays to identify compounds that inhibit (block) bitter taste in compositions and use thereof” (SENOMYX, INC., priority 2007, dated 2016).
Several values for one entry are separate records, joined by “and”; a condition that tells them apart may be missing. Equal values may be shown once.

Legend:
[1] = target: hT2R4 (Homo sapiens (Human), UniProt Q9NYW5); assay: hT2R panel inhibition, transient HEK293 G16g44, agonist Chloroquine pH6.5 5 mM; assay type: cell-based; details: HEK293, compound at 25 μM; receptor activated to EC80 with the corresponding agonist; class symbols; read-out: screening result against bitter receptor 4
hT2R4, sequence (Q9NYW5 whole entry): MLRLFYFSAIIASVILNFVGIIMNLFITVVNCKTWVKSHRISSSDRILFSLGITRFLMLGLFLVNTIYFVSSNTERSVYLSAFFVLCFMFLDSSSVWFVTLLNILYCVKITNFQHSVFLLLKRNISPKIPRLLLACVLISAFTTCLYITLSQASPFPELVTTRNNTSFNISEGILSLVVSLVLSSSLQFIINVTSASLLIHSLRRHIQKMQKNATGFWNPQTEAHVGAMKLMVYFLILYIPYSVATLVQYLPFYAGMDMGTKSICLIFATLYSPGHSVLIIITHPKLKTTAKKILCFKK
Protocol: (§1) Specifically, in order to evaluate the inhibitory selectivity of the Compound C compound, this compound was tested against 22 human T2Rs which were deorphaned by Senomyx. These receptors and the bitter ligands that activate these human T2Rs are reported in earlier patent applications which are incorporated by reference herein. These 22 human T2Rs are hT2R1, 3, 4, 5, 7, 8, 9, 10, 13, 14, 16, 44, 51, 54, 55, 61, 63, 64, 65, 67, 71 and 75. The amino acid and nucleic acid sequences of all of these T2Rs may be found in these earlier patent applications. These human T2Rs were each individually transiently transfected into HEK293 cells that stably express the promiscuous G protein G16g44 and functional assays were effected using these receptors as disclosed in these same patent applications. […] The ligands were used at EC80 concentration levels. The list of bitter ligands utilized and the tested ligand concentrations are contained in Table 5 of this example.
(§2) Relating to the foregoing, FIG. 5 contains experimental results wherein Compound C was tested with different agonist compounds. The inhibition activity is represented by the reduction of receptor activity in the presence of Compound C. […] These 13 hT2Rs are hT2R3, 7, 10, 14, 16, 44, 51, 55, 61, 63, 64, 65, and 71.

[2] = target: hT2R10 (Homo sapiens (Human), UniProt Q9NYW0); assay: hT2R panel inhibition, transient HEK293 G16g44, agonist Strychnine 50 μM; assay type: cell-based; details: HEK293, read-out: screening result against bitter receptor 10, compound at 25 μM; receptor activated to EC80 with the corresponding agonist
hT2R10, sequence (Q9NYW0 whole entry): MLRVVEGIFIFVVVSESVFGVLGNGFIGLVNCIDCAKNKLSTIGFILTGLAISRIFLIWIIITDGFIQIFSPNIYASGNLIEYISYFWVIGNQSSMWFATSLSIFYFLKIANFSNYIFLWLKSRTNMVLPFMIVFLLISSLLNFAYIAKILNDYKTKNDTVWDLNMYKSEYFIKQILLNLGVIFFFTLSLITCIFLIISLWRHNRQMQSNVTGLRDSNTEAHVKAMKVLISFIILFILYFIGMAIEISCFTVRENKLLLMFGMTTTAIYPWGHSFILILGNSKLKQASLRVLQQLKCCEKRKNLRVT

[3] = target: T1, hT2R14 (Homo sapiens (Human), UniProt Q9NYV8); assay: hT2R panel inhibition, transient HEK293 G16g44, agonist Aristolochic Acid 2 μM; assay type: cell-based; details: HEK293, compound at 25 μM; receptor activated to EC80 with the corresponding agonist; read-out: screening result against bitter receptor 14
T1 sequence (Q9NYV8 whole entry): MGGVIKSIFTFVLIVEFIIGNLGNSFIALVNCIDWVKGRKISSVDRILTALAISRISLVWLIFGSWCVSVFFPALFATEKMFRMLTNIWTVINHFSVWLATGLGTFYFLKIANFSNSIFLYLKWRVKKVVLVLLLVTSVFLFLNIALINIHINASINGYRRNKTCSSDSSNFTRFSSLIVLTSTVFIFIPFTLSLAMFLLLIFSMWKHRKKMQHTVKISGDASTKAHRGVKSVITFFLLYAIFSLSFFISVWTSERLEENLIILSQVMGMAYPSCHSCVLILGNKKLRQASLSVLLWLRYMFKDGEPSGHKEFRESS
How it was run: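 Agonist challenge was at EC80, with 0.5 mM andrographolide on hT2R8 and 2 μM aristolochic acid on hT2R14. Inhibition was measured in functional assays in HEK293 cells that stably carry the promiscuous G protein G16g44 and were transiently transfected with the individual receptor.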

[4] = target: hT2R61 (Homo sapiens (Human), UniProt P59537); assay: hT2R panel inhibition, transient HEK293 G16g44, agonist Aristolochic Acid 25 nM; assay type: cell-based; details: HEK293, compound at 25 μM; receptor activated to EC80 with the corresponding agonist; read-out: screening result against bitter receptor 61
hT2R61, sequence (P59537 whole entry): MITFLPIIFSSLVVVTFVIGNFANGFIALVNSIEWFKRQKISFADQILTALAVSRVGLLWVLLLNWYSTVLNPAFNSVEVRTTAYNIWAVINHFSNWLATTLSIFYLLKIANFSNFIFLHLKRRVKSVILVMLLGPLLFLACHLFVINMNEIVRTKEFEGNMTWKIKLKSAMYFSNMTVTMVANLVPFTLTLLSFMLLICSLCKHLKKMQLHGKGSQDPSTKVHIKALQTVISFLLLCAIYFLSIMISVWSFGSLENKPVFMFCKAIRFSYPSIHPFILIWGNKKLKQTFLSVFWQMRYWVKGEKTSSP
How it was run: (§3)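 Compound C tested for reduction of receptor activity evoked by EC80-level bitter agonists, receptor by receptor. Assay cells: HEK293 line stably carrying promiscuous G protein G16g44, transiently transfected with individual human T2Rs.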

[5] = tested on: hT2R55; assay: hT2R panel inhibition, transient HEK293 G16g44, agonist Cinchonine 150 μM; assay type: cell-based, human; details: compound at 25 μM; receptor activated to EC80 with the corresponding agonist
How it was run: as §3

[6] = target: hT2R64 (Homo sapiens (Human), UniProt P59538); assay: hT2R panel inhibition, transient HEK293 G16g44, agonist Aristolochic Acid 1 μM; assay type: cell-based; details: HEK293, compound at 25 μM; receptor activated to EC80 with the corresponding agonist; read-out: screening result against bitter receptor 64
hT2R64, sequence (P59538 whole entry): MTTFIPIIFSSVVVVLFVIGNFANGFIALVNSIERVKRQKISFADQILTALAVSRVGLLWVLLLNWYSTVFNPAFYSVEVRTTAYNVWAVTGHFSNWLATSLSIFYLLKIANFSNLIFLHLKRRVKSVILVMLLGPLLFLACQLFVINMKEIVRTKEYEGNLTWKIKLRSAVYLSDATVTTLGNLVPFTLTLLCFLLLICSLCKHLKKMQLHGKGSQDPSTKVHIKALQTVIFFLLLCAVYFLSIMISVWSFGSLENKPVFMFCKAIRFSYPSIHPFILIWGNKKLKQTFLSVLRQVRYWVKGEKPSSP
How it was run: as §3

[7] = tested on: hT2R63; assay: hT2R panel inhibition, transient HEK293 G16g44, agonist Caffeine 1 mM or Andrographolide 100 μM; assay type: cell-based, human; details: compound at 25 μM; receptor activated to EC80 with the corresponding agonist
How it was run: as §3

[8] = target: hT2R75 (Homo sapiens (Human), UniProt P59540); assay: hT2R panel inhibition, transient HEK293 G16g44, agonist Strychnine 1 μM; assay type: cell-based; details: HEK293, read-out: screening result against bitter receptor 75, compound at 25 μM; receptor activated to EC80 with the corresponding agonist
hT2R75, sequence (P59540 whole entry): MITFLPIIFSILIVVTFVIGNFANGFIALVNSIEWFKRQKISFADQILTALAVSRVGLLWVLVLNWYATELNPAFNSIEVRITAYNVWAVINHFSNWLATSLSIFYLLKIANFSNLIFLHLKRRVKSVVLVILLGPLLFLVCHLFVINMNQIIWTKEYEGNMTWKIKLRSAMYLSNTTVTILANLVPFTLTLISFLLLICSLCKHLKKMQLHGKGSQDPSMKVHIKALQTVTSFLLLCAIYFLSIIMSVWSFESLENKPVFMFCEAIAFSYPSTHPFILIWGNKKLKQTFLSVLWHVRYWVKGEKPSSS
Protocol: as §1, §2

[9] = target: T1, hT2R14; assay: hT2R14 antagonist high-throughput FLIPR assay, stable cell line with G16g44, agonist aristolochic acid; assay type: cell-based; details: read-out: IC50 on hT2R14 bitter receptor
How it was run: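 Compounds were co-applied with 3 μM aristolochic acid, a dose set to reach 70-80% of maximal hT2R14 activation. Read-out was FLIPR fluorescence in a stable HEK293 line co-expressing hT2R14 and G16g44.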

[10] = target: hT2R71 (Homo sapiens (Human), UniProt P59536); assay: hT2R panel inhibition, transient HEK293 G16g44, agonist Picric Acid 10 μM; assay type: cell-based; details: HEK293, compound at 25 μM; receptor activated to EC80 with the corresponding agonist; read-out: screening result against bitter receptor 71
hT2R71, sequence (P59536 whole entry): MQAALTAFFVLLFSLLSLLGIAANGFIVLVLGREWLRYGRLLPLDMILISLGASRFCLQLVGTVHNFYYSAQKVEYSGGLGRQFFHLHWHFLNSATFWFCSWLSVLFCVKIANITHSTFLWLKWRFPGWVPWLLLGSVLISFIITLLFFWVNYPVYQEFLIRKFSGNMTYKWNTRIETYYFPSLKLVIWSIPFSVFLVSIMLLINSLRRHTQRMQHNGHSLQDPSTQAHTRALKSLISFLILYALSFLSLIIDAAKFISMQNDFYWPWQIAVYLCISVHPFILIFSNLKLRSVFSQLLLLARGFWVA
How it was run: as §3

[11] = target: hT2R3 (Homo sapiens (Human), UniProt Q9NYW6); assay: hT2R panel inhibition, transient HEK293 G16g44, agonist Chloroquine pH6.5 50 μM; assay type: cell-based; details: HEK293, compound at 25 μM; receptor activated to EC80 with the corresponding agonist; read-out: screening result against bitter receptor 3
hT2R3, sequence (Q9NYW6 whole entry): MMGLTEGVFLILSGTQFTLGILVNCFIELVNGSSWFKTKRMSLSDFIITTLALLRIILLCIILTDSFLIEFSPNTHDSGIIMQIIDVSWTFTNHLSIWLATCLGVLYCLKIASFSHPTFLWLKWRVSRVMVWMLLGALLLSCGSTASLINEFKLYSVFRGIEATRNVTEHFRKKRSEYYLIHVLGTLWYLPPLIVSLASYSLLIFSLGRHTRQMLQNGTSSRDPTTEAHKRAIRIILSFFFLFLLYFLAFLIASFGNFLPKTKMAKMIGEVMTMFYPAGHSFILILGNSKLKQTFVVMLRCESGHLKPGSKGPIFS
How it was run: as §3

[12] = target: hT2R7 (Homo sapiens (Human), UniProt Q9NYW3); assay: hT2R panel inhibition, transient HEK293 G16g44, agonist Chloroquine pH6.5 10 mM; assay type: cell-based; details: HEK293, compound at 25 μM; receptor activated to EC80 with the corresponding agonist; read-out: screening result against bitter receptor 7
hT2R7, sequence (Q9NYW3 whole entry): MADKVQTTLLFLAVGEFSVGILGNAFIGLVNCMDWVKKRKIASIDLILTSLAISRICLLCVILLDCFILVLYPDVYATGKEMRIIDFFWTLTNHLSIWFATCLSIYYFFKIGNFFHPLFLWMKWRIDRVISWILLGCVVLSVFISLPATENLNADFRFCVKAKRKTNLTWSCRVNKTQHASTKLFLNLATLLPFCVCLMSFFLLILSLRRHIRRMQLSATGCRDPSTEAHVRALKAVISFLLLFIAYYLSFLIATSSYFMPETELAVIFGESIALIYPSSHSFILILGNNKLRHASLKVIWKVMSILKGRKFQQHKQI
How it was run: as §3

[13] = tested on: hT2R67; assay: hT2R panel inhibition, transient HEK293 G16g44, agonist Andrographolide 5 μM; assay type: cell-based, human; details: compound at 25 μM; receptor activated to EC80 with the corresponding agonist
How it was run: as §3

[14] = tested on: hT2R44; assay: hT2R panel inhibition, transient HEK293 G16g44, agonist Denatonium 0.5 μM; assay type: cell-based, human; details: compound at 25 μM; receptor activated to EC80 with the corresponding agonist
How it was run: as §3

[15] = tested on: hT2R65; assay: hT2R panel inhibition, transient HEK293 G16g44, agonist Oleuropein 1 mM; assay type: cell-based, human; details: compound at 25 μM; receptor activated to EC80 with the corresponding agonist
How it was run: as §3

[16] = tested on: hT2R54; assay: hT2R panel inhibition, transient HEK293 G16g44, agonist Ranitidine 5 mM; assay type: cell-based, human; details: compound at 25 μM; receptor activated to EC80 with the corresponding agonist
How it was run: as §3

[17] = target: hT2R16 (Homo sapiens (Human), UniProt Q9NYV7); assay: hT2R panel inhibition, transient HEK293 G16g44, agonist Salicin 1 mM; assay type: cell-based; details: HEK293, compound at 25 μM; receptor activated to EC80 with the corresponding agonist; read-out: screening result against bitter receptor 16
hT2R16, sequence (Q9NYV7 whole entry): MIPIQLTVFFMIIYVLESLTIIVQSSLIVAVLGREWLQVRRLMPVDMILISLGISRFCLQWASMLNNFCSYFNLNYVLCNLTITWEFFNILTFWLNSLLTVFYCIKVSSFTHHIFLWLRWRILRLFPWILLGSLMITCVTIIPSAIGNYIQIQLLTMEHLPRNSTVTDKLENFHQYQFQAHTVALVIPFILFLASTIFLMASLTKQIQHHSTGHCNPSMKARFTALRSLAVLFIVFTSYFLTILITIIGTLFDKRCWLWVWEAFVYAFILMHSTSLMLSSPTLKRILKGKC
How it was run: as §3

Row | Structure (SMILES) | inhibition at 25 µM [1] | inhibition at 25 µM [2] | inhibition at 25 µM [3] | inhibition at 25 µM [4] | screening result against bitter receptor 55 [5] | inhibition at 25 µM [6] | screening result against bitter receptor 63 [7] | inhibition at 25 µM [8] | IC50 [9] | inhibition at 25 µM [10] | inhibition at 25 µM [11] | inhibition at 25 µM [12] | screening result against bitter receptor 67 [13] | screening result against bitter receptor 44 [14] | screening result against bitter receptor 65 [15] | screening result against bitter receptor 54 [16] | inhibition at 25 µM [17]
1 | CCN(Cc1ccc(OC)cc1)S(=O)(=O)c1ccc(C(=O)O)cc1 [Example 5-4, 4-(N-ethyl-N-(4-methoxybenzyl)sulfamoyl)benzoic acid] | 20 to 40% | 40 to 60% | 40 to 60% | 20 to 40% | ++++ (80% or greater inhibition = ++++) | > 80% | +++ (60% to 80% inhibition = +++) | 20 to 40% | 20 µM and 10 µM | – | – | – | – | – | – | – | –
2 | COc1ccccc1CN(Cc1ccco1)S(=O)(=O)c1ccc(C(=O)O)cc1 [Example 5-7, 4-(N-(furan-2-ylmethyl)-N-(2-methoxybenzyl)sulfamoyl)benzoic acid] | 20 to 40% | 20 to 40% | 40 to 60% | > 80% | ++++ (80% or greater inhibition = ++++) | > 80% | ++++ (80% or greater inhibition = ++++) | 20 to 40% | 12 µM | 40 to 60% | 20 to 40% | 20 to 40% | + (20% to 40% inhibition = +) | ++ (40% to 60% inhibition = ++) | – | – | –
3 | CCCN(Cc1ccc(OC)cc1)S(=O)(=O)c1ccc(C(=O)O)cc1 [Example 5-17, 4-(N-(4-methoxybenzyl)-N-propylsulfamoyl)benzoic acid] | 20 to 40% | – | > 80% | > 80% | ++++ (80% or greater inhibition = ++++) | – | – | 20 to 40% | 3.75 µM | 40 to 60% | 20 to 40% | 20 to 40% | – | +++ (60% to 80% inhibition = +++) | ++ (40% to 60% inhibition = ++) | ++ (40% to 60% inhibition = ++) | 20 to 40%
